Results published in US10501449B2 (priority 2018, dated 2019).

How the values were obtained:
hROMK (human Kir1.1) = hROMK (human Kir1.1) (Homo sapiens (Human), UniProt P48048); experiment: cell-based; details: CHO T-Rex hROMK stable cell line; thallium flux; 10-point concentration response curve; read-out: Human ROMK Th Flux IC50
hERG channels = hERG channels (Homo sapiens (Human), UniProt Q12809); experiment: hERG Manual Patch Clamp Assay; type: cell-based; details: HEK 293 cells stably expressing hERG channels; for inhibition at 1 µM: human, pH 7.4, 1 uM, read-out: hERG EP % Inh @ 1 uM
Sequence of hERG channels (Q12809 whole entry): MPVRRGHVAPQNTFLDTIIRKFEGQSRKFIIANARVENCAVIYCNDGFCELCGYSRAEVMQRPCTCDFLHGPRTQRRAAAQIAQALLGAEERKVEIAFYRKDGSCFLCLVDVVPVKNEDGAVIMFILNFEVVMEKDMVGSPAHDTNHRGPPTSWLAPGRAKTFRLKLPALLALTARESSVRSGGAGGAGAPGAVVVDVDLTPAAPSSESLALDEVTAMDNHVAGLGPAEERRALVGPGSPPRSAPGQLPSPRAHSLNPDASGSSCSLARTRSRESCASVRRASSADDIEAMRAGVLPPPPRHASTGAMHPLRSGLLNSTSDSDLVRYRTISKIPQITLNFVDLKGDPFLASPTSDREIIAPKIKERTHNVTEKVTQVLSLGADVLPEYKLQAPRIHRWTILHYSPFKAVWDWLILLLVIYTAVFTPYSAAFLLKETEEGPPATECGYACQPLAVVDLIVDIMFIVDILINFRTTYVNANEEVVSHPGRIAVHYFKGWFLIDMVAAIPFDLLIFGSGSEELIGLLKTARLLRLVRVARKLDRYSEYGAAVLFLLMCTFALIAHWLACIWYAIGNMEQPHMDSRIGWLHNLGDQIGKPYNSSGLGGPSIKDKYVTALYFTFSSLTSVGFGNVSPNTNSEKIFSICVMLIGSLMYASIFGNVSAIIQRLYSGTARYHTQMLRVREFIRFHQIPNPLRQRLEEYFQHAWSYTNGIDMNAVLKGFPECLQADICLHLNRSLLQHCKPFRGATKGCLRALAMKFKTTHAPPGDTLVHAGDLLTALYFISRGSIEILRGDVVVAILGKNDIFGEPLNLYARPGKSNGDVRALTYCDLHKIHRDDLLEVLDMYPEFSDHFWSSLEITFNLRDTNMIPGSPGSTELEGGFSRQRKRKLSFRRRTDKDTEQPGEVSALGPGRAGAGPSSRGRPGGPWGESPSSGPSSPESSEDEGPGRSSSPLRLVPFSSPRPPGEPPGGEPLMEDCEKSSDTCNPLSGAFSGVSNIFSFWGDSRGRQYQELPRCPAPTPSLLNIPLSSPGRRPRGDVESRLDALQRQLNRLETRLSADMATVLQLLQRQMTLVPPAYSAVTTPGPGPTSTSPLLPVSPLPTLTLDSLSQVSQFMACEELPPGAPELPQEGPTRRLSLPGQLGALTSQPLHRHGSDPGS

Sequence of hROMK (human Kir1.1) (P48048 whole entry): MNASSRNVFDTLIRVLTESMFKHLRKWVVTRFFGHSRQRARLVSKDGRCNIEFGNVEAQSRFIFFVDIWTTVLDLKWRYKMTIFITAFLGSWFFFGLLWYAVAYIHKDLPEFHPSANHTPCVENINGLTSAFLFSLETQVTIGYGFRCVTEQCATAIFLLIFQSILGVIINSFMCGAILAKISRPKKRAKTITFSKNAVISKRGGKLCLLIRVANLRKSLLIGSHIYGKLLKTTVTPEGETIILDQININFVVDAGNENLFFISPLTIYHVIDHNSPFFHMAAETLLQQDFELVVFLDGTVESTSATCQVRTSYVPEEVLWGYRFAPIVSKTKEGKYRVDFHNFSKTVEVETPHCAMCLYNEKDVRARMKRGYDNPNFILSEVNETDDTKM

Structure (SMILES)	IC50 (hROMK (human Kir1.1))	inhibition at 1 µM (hERG channels)	hERG EP % Inh @ 1 uM (hERG channels; 1 uM)
COc1cc(-n2cnc(C)c2)ncc1CN1CCN[C@H](c2ccc3c(c2C)COC3=O)C1 [Example 149-I, (R)-5-(4-((4-methoxy-6-(4-methyl-1H-imidazol-1-yl)pyridin-3-yl)methyl)piperazin-2-yl)-4-methylisobenzofuran-1(3H)-one]	52 nM	7.6%	–
Cc1cn(-c2ccc(CN3CCN[C@H](c4ccc5c(c4C)COC5=O)C3)c(C)n2)cn1 [Example 142-I, (R)-4-methyl-5-(4-((2-methyl-6-(4-methyl-1H-imidazol-1-yl)pyridin-3-yl)methyl)piperazin-2-yl)isobenzofuran-1(3H)-one]	76 nM	8.5%	–
COc1cc(-c2ccc(CN3CCO[C@H](c4ccc5c(c4C)COC5=O)C3)cn2)ncc1C#N [Example 35-I, (R)-4-methoxy-5′-((2-(4-methyl-1-oxo-1,3-di-hydroisobenzofuran-5-yl)morpholino)methyl)-[2,2′-bipyridine]-5-carbonitrile]	120 nM	20%	–
Cc1cc(-n2cc(CN3CC(O)CC(c4ccc5c(c4C)COC5=O)C3)cn2)ncc1C#N (single isomer, unassigned) [Example 199-IV, 6-(4-((3-hydroxy-5-(4-methyl-1-oxo-1,3-dihydroisobenzofuran-5-yl)piperidin-1-yl)methyl)-1H-pyrazol-1-yl)-4-methylnicotinonitrile]	16 nM	22%	–
Cc1c([C@@H]2CN(Cc3ccc(-n4ccc(C#N)n4)nc3)CCN2)ccc2c1COC2=O [Example 136-I, (R)-1-(5-((3-(4-methyl-1-oxo-1,3-dihydroisobenzofuran-5-yl)piperazin-1-yl)methyl)pyridin-2-yl)-1H-pyrazole-3-carbonitrile]	28 nM	29%	–
COc1cc(N2CCC(CN3CCN[C@H](c4ccc5c(c4C)COC5=O)C3)C2)ncc1C#N (single isomer, unassigned) [Example 155-I]	11 nM	–	26%
Cc1cc(-n2ncc(CN3CCN[C@H](c4ccc5c(c4C)COC5=O)C3)c2C)ncc1C#N [Example 146-I, (R)-4-methyl-6-(5-methyl-4-((3-(4-methyl-1-oxo-1,3-dihydroisobenzofuran-5-yl)piperazin-1-yl)methyl)-1H-pyrazol-1-yl)nicotinonitrile]	25 nM	16%	–
COc1ncnc(-n2cc(CN3C[C@@H](c4ccc5c(c4C)COC5=O)N[C@@H](C)C3)cn2)n1 [Example 194-I, 5-((2R,6S)-4-((1-(4-methoxy-1,3,5-triazin-2-yl)-1H-pyrazol-4-yl)methyl)-6-methylpiperazin-2-yl)-4-methylisobenzofuran-1(3H)-one]	60 nM	11%	–
Cc1cc(-n2cc(CN3CC(CO)CC(c4ccc5c(c4C)COC5=O)C3)cn2)ncc1C#N (single isomer, unassigned) [Example 261-II, 6-(4-((3-(hydroxymethyl)-5-(4-methyl-1-oxo-1,3-dihydroisobenzofuran-5-yl)piperidin-1-yl)methyl)-1H-pyrazol-1-yl)-4-methylnicotinonitrile]	27 nM	44%	–
COc1nn(-c2ccc(CN3CCN[C@H](c4ccc5c(c4C)COC5=O)C3)cn2)cc1C#N [Example 223-I, (R)-3-methoxy-1-(5-((3-(4-methyl-1-oxo-1,3-dihydroisobenzofuran-5-yl)piperazin-1-yl)methyl)pyridin-2-yl)-1H-pyrazole-4-carbonitrile]	18 nM	56%	–
COc1nn(-c2ncc(CN3CCN[C@H](c4ccc5c(c4C)COC5=O)C3)cn2)cc1C#N [Example 227-I, (R)-3-methoxy-1-(5-((3-(4-methyl-1-oxo-1,3-dihydroisobenzofuran-5-yl)piperazin-1-yl)methyl)pyrimidin-2-yl)-1H-pyrazole-4-carbonitrile]	28 nM	18%	–
Cc1cc(-c2cc(CN3C[C@@H](c4ccc5c(c4C)COC5=O)N[C@@H](C)C3)on2)ncc1C#N [Example 214-I, 4-methyl-6-(5-(((3S,5R)-3-methyl-5-(4-methyl-1-oxo-1,3-dihydroisobenzofuran-5-yl)piperazin-1-yl)methyl)isoxazol-3-yl)nicotinonitrile]	6.6 nM	22%	–
Cc1nn(-c2ccc(CN3CCN[C@H](c4ccc5c(c4C)COC5=O)C3)nc2)cc1C#N [Example 241-I, (R)-3-methyl-1-(6-((3-(4-methyl-1-oxo-1,3-dihydroisobenzofuran-5-yl)piperazin-1-yl)methyl)pyridin-3-yl)-1H-pyrazole-4-carbonitrile]	41 nM	18%	–
Cc1c([C@@H]2CN(Cc3cnc(-n4cc(C#N)c(C5CC5)n4)nc3)CCN2)ccc2c1COC2=O [Example 218-I, (R)-3-cyclopropyl-1-(5-((3-(4-methyl-1-oxo-1,3-dihydroisobenzofuran-5-yl)piperazin-1-yl)methyl)pyrimidin-2-yl)-1H-pyrazole-4-carbonitrile]	33 nM	39%	–
COc1cc(-n2cnc(CN3CCO[C@H](c4ccc5c(c4C)COC5=O)C3)c2)ncc1C#N [Example 27-I, (R)-4-methoxy-6-(4-((2-(4-methyl-1-oxo-1,3-dihydroisobenzofuran-5-yl)morpholino)methyl)-1H-imidazol-1-yl) nicotinonitrile]	32 nM	11%	–
Cc1cc(-n2cc(CN3CC(O)C(c4ccc5c(c4C)COC5=O)C3)cn2)ncc1C#N (single isomer, unassigned) [Example 211-I, 6-(4-((3-hydroxy-4-(4-methyl-1-oxo-1,3-dihydroisobenzofuran-5-yl)pyrrolidin-1-yl)methyl)-1H-pyrazol-1-yl)-4-methylnicotinonitrile]	30 nM	58%	–
Cc1c([C@@H]2CN(Cc3cnn(-c4cccc(N(C)S(C)(=O)=O)n4)c3)C[C@H](C)N2)ccc2c1COC2=O [Example 252-I, N-methyl-N-(6-(4-(((3S,5R)-3-methyl-5-(4-methyl-1-oxo-1,3-dihydroisobenzofuran-5-yl)piperazin-1-yl)methyl)-1H-pyrazol-1-yl)pyridin-2-yl)methanesulfonamide]	72 nM	8.8%	–
Cc1cc(-n2cc(CN3CCO[C@H](c4ccc5c(c4C)COC5=O)C3)c(C)n2)ncc1C#N [Example 52-I, (R)-4-methyl-6-(3-methyl-4-((2-(4-methyl-1-oxo-1,3-dihydroisobenzo-furan-5-yl)morpholino)methyl)-1H-pyrazol-1-yl)nicotinonitrile]	2.8 nM	72%	–
Cc1cc(-c2ncc(CN3CC[C@@H](O)[C@H](c4ccc5c(c4C)COC5=O)C3)s2)ncc1C#N [Example 125-I, 6-(5-(((3R,4R)-4-hydroxy-3-(4-methyl-1-oxo-1,3-dihydroisobenzofuran-5-yl)piperidin-1-yl)methyl)thiazol-2-yl)-4-methylnicotinonitrile]	30 nM	8.3%	–
Cc1c([C@@H]2CN(Cc3cnc(-n4cnc(C#N)n4)nc3)CCN2)ccc2c1COC2=O [Example 217-I, (R)-1-(5-((3-(4-methyl-1-oxo-1,3-dihydroisobenzofuran-5-yl)piperazin-1-yl)methyl)pyrimidin-2-yl)-1H-1,2,4-triazole-3-carbonitrile]	24 nM	16%	–
Cc1cn(-c2ncc(CN3CCN[C@H](c4ccc5c(c4C)COC5=O)C3)cn2)nc1C#N [Example 243-I, (R)-4-methyl-1-(5-((3-(4-methyl-1-oxo-1,3-dihydroisobenzofuran-5-yl)piperazin-1-yl)methyl)pyrimidin-2-yl)-1H-pyrazole-3-carbonitrile]	13 nM	9.8%	–
Cc1ncn(-c2ncc(CN3CCN[C@H](c4ccc5c(c4C)COC5=O)C3)cn2)c1C(F)F [Example 150-I, (R)-5-(4-((2-(5-(difluoromethyl)-4-methyl-1H-imidazol-1-yl)pyrimidin-5-yl)methyl)piperazin-2-yl)-4-methylisobenzofuran-1(3H)-one]	100 nM	14%	–
Cc1c([C@@H]2CN(Cc3cnn(-c4cc(C)c5oc(=O)n(C)c5c4)c3)CCN2)ccc2c1COC2=O [Example 57-I, (R)-3,7-dimethyl-5-(4-((3-(4-methyl-1-oxo-1,3-dihydroisobenzofuran-5-yl)piperazin-1-yl)methyl)-1H-pyrazol-1-yl)benzo[d]oxazol-2(3H)-one]	59 nM	26%	–
Cc1c([C@@H]2CN(Cc3cnn(-c4cc(N5CCOCC5)c(C#N)cn4)c3)CCN2)ccc2c1COC2=O [Example 220-I, (R)-6-(4-((3-(4-methyl-1-oxo-1,3-dihydroisobenzofuran-5-yl)piperazin-1-yl)methyl)-1H-pyrazol-1-yl)-4-morpholinonicotinonitrile]	29 nM	30%	–
Cc1c([C@@H]2CN(Cc3ccc(-n4cc(C#N)nn4)nc3)CCN2)ccc2c1COC2=O [Example 225-I, (R)-1-(5-((3-(4-methyl-1-oxo-1,3-dihydroisobenzofuran-5-yl)piperazin-1-yl)methyl)pyridin-2-yl)-1H-1,2,3-triazole-4-carbonitrile]	19 nM	39%	–
Cc1c([C@@H]2CN(Cc3cn(-c4ccc(C(F)F)nc4)cn3)C[C@H](C)N2)ccc2c1COC2=O [Example 134-I, 5-((2R,6S)-4-((1-(6-(difluoromethyl)pyridin-3-yl)-1H-imidazol-4-yl)methyl)-6-methylpiperazin-2-yl)-4-methylisobenzofuran-1(3H)-one]	43 nM	22%	–
Cc1c([C@@H]2CN(Cc3ccc(-n4cnc(C#N)c4)nc3)CCO2)ccc2c1COC2=O [Example 37-I, (R)-1-(5-((2-(4-methyl-1-oxo-1,3-dihydroiso-benzofuran-5-yl)morpho-lino)methyl)pyridin-2-yl)-1H-imidazole-4-carbonitrile]	16 nM	6.2%	–
